“And” between values parts separate entries of the source, which are not always exact repeats. Equal values may be shown once. Read-outs that look alike come from different tables or passages of the source.
Assays:
[1] = target: T1, Halo-EGFP-NanoLuc-FKBP^F36V (H-E-N-F) fusion protein (UniProt P0A3G2+P62942+Q9GV45, A155T/A167V/A172T/A224E/A31E/A60N/A81I/C128F/C176G/D78G/E160K/E257K/F37V/F95D/H272N/I117V/K175M/K195N/K70R/L47V/L54V/L88M/L99Q/M102K/N193R/N227D/P142E/P291S/Q151K/Q38R/Q45L/S2A/S58T/T264A/V71I/Y165I/Y273L/Y87F); type: cell-based; settings: replicate wells; for Blank corrected Raw Data (470-80): +dox, PROTAC 500nM
[2] = test system: MLKL^−/− HT29 cells expressing untagged MLKL; type: cell-based; settings: MLKL-/- + MLKL, independent experiments
wild-type HT29 cells = experiment: Necroptosis assay (PI exclusion, flow cytometry), wild-type HT29 cells, TNF+SM+IDN; type: cell-based, human; settings: Unt (no death stimulus); sheet S5F
Procedure, shortened: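 HT29 cells were pretreated 5 h with 500 nM degrader or DMSO, then stimulated 24 h with TNF (100 ng/mL), Smac mimetic compound A (500 nM–1 µM) and emricasan (IDN, 5 µM). Cell death was scored by flow cytometry as PI uptake (10 μg/mL PI, 10,000 events/sample), N = 3 replicates.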

MLKL-NLuc = target: T2, MLKL-NLuc (Oplophorus gracilirostris, UniProt Q9GV45, A31E/A60N/A81I/F95D/I117V/K70R/L54V/L99Q/M102K/N193R/P142E/Q151K/Q38R/Q45L/V71I/Y165I); type: cell-based; settings: 5 h
T2 construct: expressed in transfected cells; host or cells: MLKL-/- HT29 (A12); MLKL-/-CASP8-/- HT29 (A24); doxycycline-inducible

[3] = test system: MLKL^−/−CASP8^−/− HT29 cells expressing MLKL-NLuc and caspase-8-FKBP^F36V; settings: TNF+SM
[4] = target: T1, Halo-EGFP-NanoLuc-FKBP^F36V (H-E-N-F) fusion protein; type: cell-based; parameters: expressed in transfected cells; host or cells: immortalized mouse dermal fibroblasts (iMDFs), ubiquitin promoter, constitutive; settings: 500 nM

T2 sequence (Q9GV45 other isoform, or with tags, fused parts or gaps with the stated changes): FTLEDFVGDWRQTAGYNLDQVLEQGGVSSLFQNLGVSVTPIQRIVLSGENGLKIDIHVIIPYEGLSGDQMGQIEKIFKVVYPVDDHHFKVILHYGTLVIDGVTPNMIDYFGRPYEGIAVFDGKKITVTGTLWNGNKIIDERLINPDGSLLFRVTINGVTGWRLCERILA

`CCc1cccc(N(CC)C(=O)Cn2c(C(=O)NC3CCC(C(=O)NCCCCCCCC(=O)NCCCCNc4cccc5c4C(=O)N(C4CCC(=O)NC4=O)C5=O)CC3)cc3ccccc32)c1` (centres unmarked) [NC4] was tested, and the “NanoLuc luminescence, Blank corrected (470-80)” value (“NanoLuc luminescence” for short) ([1]; 62.5nM, 2h) was 4980 and 5006 and 4972, the “NanoLuc luminescence” value ([1]; 62.5nM, 4h) was 5208 and 3005 and 4773 and 4875 and the “NanoLuc luminescence” value ([1]; 62.5nM, 6h) was 2838 and 2892 and 3957. The “NanoLuc luminescence” value ([1]; 62.5nM, 8h) was 2020 and 2221 and 2420, the “NanoLuc luminescence” value ([1]; 62.5nM, 10h) was 1449 and 1207 and 1837 and the “NanoLuc luminescence” value ([1]; 250nM, 2h) was 1535 and 1072 and 1399. For the same compound, the “NanoLuc luminescence” value ([1]; 250nM, 4h) was 1441 and 855 and 1118, the “NanoLuc luminescence” value ([1]; 250nM, 6h) was 752 and 593 and 657 and 1043 and the “NanoLuc luminescence” value ([1]; 250nM, 8h) was 745 and 600 and 575. For the same compound, the “NanoLuc luminescence” value ([1]; 250nM, 10h) was 292 and 341 and 527, the “NanoLuc luminescence” value ([1]; 500nM, 2h) was 894 and 649 and 1055 and 784 and the “NanoLuc luminescence” value ([1]; 500nM, 4h) was 690 and 518 and 723. For the same compound, the “NanoLuc luminescence” value ([1]; 500nM, 6h) was 437 and 546 and 398 and 460, the “NanoLuc luminescence” value ([1]; 500nM, 8h) was 261 and 295 and 351 and the “NanoLuc luminescence” value ([1]; 500nM, 10h) was 255 and 239 and 173. For the same compound, the “Blank corrected Raw Data (470-80)” value ([1]; DMSO (control) co-treatment) was 1248 and 1289 and 1195 and 929, the “Blank corrected Raw Data (470-80)” value ([1]; co-treatment with MG132 (10uM)) was 3006 and 3126 and 2730 and 2907 and the “Live cells (%PI negative) after TNF+911+zVAD” value (“Live cells (%PI negative)” for short) ([2]; 3.9nM) was 6.4 and 6.9 and 5.3. For the same compound, the “Live cells (%PI negative)” value ([2]; 7.8nM) was 6.6 and 6 and 6.3, the “Live cells (%PI negative)” value ([2]; 31.25nM) was 6.5 and 6 and 7.1 and the “Live cells (%PI negative)” value ([2]; 62.5nM) was 6 and 5.5 and 7.5. For the same compound, the “Live cells (%PI negative)” value ([2]; 250nM) was 4.9 and 6.4 and 6.1, the “Live cells (%PI negative)” value ([2]; 500nM) was 4 and 4.7 and 6.1 and the “Live cells (%PI negative)” value ([2]; 1000nM) was 5.9 and 5.2 and 6.1. For the same compound, the “viable cells (PI exclusion)” value (wild-type HT29 cells) was 70.2 and 66.8 and 70.5, the “depletion of MLKL-NLuc” value (MLKL-NLuc) was “could be depleted” and the “Cytotox-Red uptake (cell death), IncuCyte” value (“Cytotox-Red uptake” below) ([3]; elapsed 0 h) was 176. For the same compound, the “Cytotox-Red uptake” value ([3]; elapsed 0.5 h) was 196.812, the “Cytotox-Red uptake” value ([3]; elapsed 1 h) was 269.75 and the “Cytotox-Red uptake” value ([3]; elapsed 2 h) was 726.062. For the same compound, the “Cytotox-Red uptake” value ([3]; elapsed 3 h) was 1441.19, the “Cytotox-Red uptake” value ([3]; elapsed 4 h) was 2153.69 and the “Cytotox-Red uptake” value ([3]; elapsed 5 h) was 2734. The “Cytotox-Red uptake” value ([3]; elapsed 6 h) was 3193.62, the “Cytotox-Red uptake” value ([3]; elapsed 6.5 h) was 3375.81 and the “Cytotox-Red uptake” value ([3]; elapsed 7 h) was 3569.31. For the same compound, the “Cytotox-Red uptake” value ([3]; elapsed 7.5 h) was 3696.25, the “Cytotox-Red uptake” value ([3]; elapsed 8 h) was 3846.56 and the “Cytotox-Red uptake” value ([3]; elapsed 9 h) was 4053. For the same compound, the “Cytotox-Red uptake” value ([3]; elapsed 9.5 h) was 4125.31, the “Cytotox-Red uptake” value ([3]; elapsed 10 h) was 4221.25 and the “Cytotox-Red uptake” value ([3]; elapsed 10.5 h) was 4287.44. For the same compound, the “Cytotox-Red uptake” value ([3]; elapsed 11 h) was 4360, the “Cytotox-Red uptake” value ([3]; elapsed 12 h) was 4474.25 and the “Cytotox-Red uptake” value ([3]; elapsed 13 h) was 4557.19. The “Cytotox-Red uptake” value ([3]; elapsed 13.5 h) was 4775.06, the “Cytotox-Red uptake” value ([3]; elapsed 14 h) was 4760.06 and the “Cytotox-Red uptake” value ([3]; elapsed 14.5 h) was 4770. The “Cytotox-Red uptake” value ([3]; elapsed 15 h) was 4767.69, the “Cytotox-Red uptake” value ([3]; elapsed 16 h) was 4884.75 and the “Cytotox-Red uptake” value ([3]; elapsed 17 h) was 4901.56. For the same compound, the “Cytotox-Red uptake” value ([3]; elapsed 18 h) was 4950.62, the “Cytotox-Red uptake” value ([3]; elapsed 19 h) was 4959.75 and the “Cytotox-Red uptake” value ([3]; elapsed 19.5 h) was 4920.31. For the same compound, the “time up to which degradation was seen, degrader left in the medium” value ([4]; 5, 24 or 48 h) was “up to 24 h” and the “time up to which degradation was maintained, degrader removed at 5 h” value ([4]; 24 or 48 h after removal) was “not maintained”.

From publication PMC9019100, “Development of NanoLuc-targeting protein degraders and a universal reporter system to benchmark tag-targeted degradation platforms” (Nature Communications, 2022)
